Earlier results in US20230303474A1, “TOTAL SYNTHESES OF SPECIALIZED PRO-RESOLVING MEDIATORS (SPMS), STRUCTURAL ISOMERS AND STRUCTURAL ANALOGS” (UNIVERSITÉ LAVAL, priority 2020, published 2023).

System: skeletal muscle cells
Settings: background statement citing ref. 19

Row | SMILES | release of the prototypic myokine interleukin-6 (IL-6)
1 | CC/C=C\C[C@H](O)\C=C/C=C/C=C/[C@H](O)C/C=C\C/C=C\CCC(=O)O [PD1, (4Z,7Z,10R,11E,13E,15Z,17S,19Z)-10,17-dihydroxydocosa-4,7,11,13,15,19-hexaenoic acid] | ineffective
2 | CC/C=C\C[C@H](O)/C=C/C=C\C=C\[C@@H](O)C/C=C\C/C=C\CCC(=O)O [PDX, (4Z,7Z,10S,11E,13Z,15E,17S,19Z)-10,17-dihydroxydocosa-4,7,11,13,15,19-hexaenoic acid] | induce the release
